Experimental data: PubChem BioAssay (NCI)
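Tested at 5 concentrations; 48 h exposure; 96-well plates; endpoints linearly interpolated, else capped at highest concentration. The concentration for 50% growth inhibition is given as GI50. TGI marks complete inhibition of growth.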

Legend:
Assay in all cases: NCI tumour cell line growth inhibition, 48 h
BT-549 breast = tested on: BT-549 breast
ACHN renal = tested on: ACHN renal
HL-60(TB) leukemia = tested on: HL-60(TB) leukemia
OVCAR-3 ovarian = tested on: OVCAR-3 ovarian
NCI/ADR-RES ovarian = tested on: NCI/ADR-RES ovarian
CAKI-1 renal = tested on: CAKI-1 renal
SK-MEL-28 melanoma = tested on: SK-MEL-28 melanoma
A549 NSCLC = tested on: A549 NSCLC
SK-MEL-2 melanoma = tested on: SK-MEL-2 melanoma
MCF7 breast = tested on: MCF7 breast
OVCAR-5 ovarian = tested on: OVCAR-5 ovarian
SK-OV-3 ovarian = tested on: SK-OV-3 ovarian
DU-145 prostate = tested on: DU-145 prostate
OVCAR-8 ovarian = tested on: OVCAR-8 ovarian
NCI-H23 lung = tested on: NCI-H23 lung
UACC-257 melanoma = tested on: UACC-257 melanoma
HCT-116 colon = tested on: HCT-116 colon
COLO 205 colon = tested on: COLO 205 colon
SNB-19 CNS = tested on: SNB-19 CNS
M14 melanoma = tested on: M14 melanoma
T-47D breast = tested on: T-47D breast
HT29 colon = tested on: HT29 colon
UACC-62 melanoma = tested on: UACC-62 melanoma
HCT-15 colon = tested on: HCT-15 colon
K-562 leukemia = tested on: K-562 leukemia
TK-10 renal = tested on: TK-10 renal
HS 578T breast = tested on: HS 578T breast
SF-539 CNS = tested on: SF-539 CNS
EKVX NSCLC = tested on: EKVX NSCLC
UO-31 renal = tested on: UO-31 renal
RXF 393 renal = tested on: RXF 393 renal
HCC-2998 colon = tested on: HCC-2998 colon
SNB-75 CNS = tested on: SNB-75 CNS
SN12C renal = tested on: SN12C renal
CCRF-CEM leukemia = tested on: CCRF-CEM leukemia
MALME-3M melanoma = tested on: MALME-3M melanoma
HOP-62 NSCLC = tested on: HOP-62 NSCLC
LOX IMVI melanoma = tested on: LOX IMVI melanoma
MDA-MB-435 = tested on: MDA-MB-435
OVCAR-4 ovarian = tested on: OVCAR-4 ovarian
SK-MEL-5 melanoma = tested on: SK-MEL-5 melanoma
786-0 renal = tested on: 786-0 renal
SF-295 CNS = tested on: SF-295 CNS
SW-620 colon = tested on: SW-620 colon
A498 renal = tested on: A498 renal
SF-268 CNS = tested on: SF-268 CNS
MDA-MB-231 breast = tested on: MDA-MB-231 breast
U251 CNS = tested on: U251 CNS
MOLT-4 leukemia = tested on: MOLT-4 leukemia
NCI-H460 lung = tested on: NCI-H460 lung
NCI-H226 lung = tested on: NCI-H226 lung
NCI-H522 lung = tested on: NCI-H522 lung
PC-3 prostate = tested on: PC-3 prostate
IGROV1 ovarian = tested on: IGROV1 ovarian
KM12 colon = tested on: KM12 colon

For `Clc1nc(Cl)c2ncn(C/C=C\Cn3cnc4c(Cl)nc(Cl)nc43)c2n1`, the GI50 (BT-549 breast) was 2.03 µM, the TGI (BT-549 breast) was 5.01 µM and the GI50 (ACHN renal) was 1.97 µM. The TGI (ACHN renal) was 3.46 µM, the GI50 (HL-60(TB) leukemia) was 3.64 µM and the TGI (HL-60(TB) leukemia) was greater than 100 µM. The GI50 (OVCAR-3 ovarian) was 1.37 µM, the TGI (OVCAR-3 ovarian) was 2.69 µM and the GI50 (NCI/ADR-RES ovarian) was 2.46 µM. For the same compound, the TGI (NCI/ADR-RES ovarian) was 8.01 µM, the GI50 (CAKI-1 renal) was 1.16 µM and the TGI (CAKI-1 renal) was 2.41 µM. For the same compound, the GI50 (SK-MEL-28 melanoma) was 1.94 µM, the TGI (SK-MEL-28 melanoma) was 3.68 µM and the GI50 (A549 NSCLC) was 3.67 µM. It also gave a TGI (A549 NSCLC) of 39.4 µM, a GI50 (SK-MEL-2 melanoma) of 1.75 µM and a TGI (SK-MEL-2 melanoma) of 3.66 µM. For the same compound, the GI50 (MCF7 breast) was 1.39 µM, the TGI (MCF7 breast) was 3.21 µM and the GI50 (OVCAR-5 ovarian) was 5.52 µM. The TGI (OVCAR-5 ovarian) was 18.4 µM, the GI50 (SK-OV-3 ovarian) was 7.03 µM and the TGI (SK-OV-3 ovarian) was 20.3 µM. It also gave a GI50 (DU-145 prostate) of 1.54 µM, a TGI (DU-145 prostate) of 2.89 µM and a GI50 (OVCAR-8 ovarian) of 2.02 µM. The TGI (OVCAR-8 ovarian) was 6.39 µM, the GI50 (NCI-H23 lung) was 2.09 µM and the TGI (NCI-H23 lung) was 5.11 µM. The GI50 (UACC-257 melanoma) was 2.56 µM, the TGI (UACC-257 melanoma) was 12.1 µM and the GI50 (HCT-116 colon) was 1.48 µM. It also gave a TGI (HCT-116 colon) of 3.26 µM, a GI50 (COLO 205 colon) of 2.09 µM and a TGI (COLO 205 colon) of 4.82 µM. For the same compound, the GI50 (SNB-19 CNS) was 3.13 µM, the TGI (SNB-19 CNS) was 10.1 µM and the GI50 (M14 melanoma) was 2.15 µM. The TGI (M14 melanoma) was 4.19 µM, the GI50 (T-47D breast) was 0.951 µM and the TGI (T-47D breast) was 2.79 µM. For the same compound, the GI50 (HT29 colon) was 1.69 µM, the TGI (HT29 colon) was 3.35 µM and the GI50 (UACC-62 melanoma) was 2.04 µM. The TGI (UACC-62 melanoma) was 4.19 µM, the GI50 (HCT-15 colon) was 1.64 µM and the TGI (HCT-15 colon) was 3.36 µM. It also gave a GI50 (K-562 leukemia) of 3.1 µM, a TGI (K-562 leukemia) greater than 100 µM and a GI50 (TK-10 renal) of 3.83 µM. The TGI (TK-10 renal) was 13.5 µM, the GI50 (HS 578T breast) was 3.01 µM and the TGI (HS 578T breast) was 6.12 µM. For the same compound, the GI50 (SF-539 CNS) was 2.49 µM, the TGI (SF-539 CNS) was 5.97 µM and the GI50 (EKVX NSCLC) was 1.97 µM. It also gave a TGI (EKVX NSCLC) of 3.76 µM, a GI50 (UO-31 renal) of 3.38 µM and a TGI (UO-31 renal) of 10.3 µM. It also gave a GI50 (RXF 393 renal) of 2.18 µM, a TGI (RXF 393 renal) of 4.35 µM and a GI50 (HCC-2998 colon) of 1.67 µM. For the same compound, the TGI (HCC-2998 colon) was 3.45 µM, the GI50 (SNB-75 CNS) was 2.73 µM and the TGI (SNB-75 CNS) was 7.91 µM. For the same compound, the GI50 (SN12C renal) was 3.01 µM, the TGI (SN12C renal) was 9.71 µM and the GI50 (CCRF-CEM leukemia) was 0.739 µM. For the same compound, the TGI (CCRF-CEM leukemia) was 2.36 µM, the GI50 (MALME-3M melanoma) was 2.34 µM and the TGI (MALME-3M melanoma) was 4.26 µM. The GI50 (HOP-62 NSCLC) was 1.74 µM, the TGI (HOP-62 NSCLC) was 4.71 µM and the GI50 (LOX IMVI melanoma) was 1.8 µM. It also gave a TGI (LOX IMVI melanoma) of 3.48 µM, a GI50 (MDA-MB-435) of 1.88 µM and a TGI (MDA-MB-435) of 3.77 µM. It also gave a GI50 (OVCAR-4 ovarian) of 1.79 µM, a TGI (OVCAR-4 ovarian) of 3.26 µM and a GI50 (SK-MEL-5 melanoma) of 2.92 µM. For the same compound, the TGI (SK-MEL-5 melanoma) was 10.5 µM, the GI50 (786-0 renal) was 2.6 µM and the TGI (786-0 renal) was 6.88 µM. The GI50 (SF-295 CNS) was 1.54 µM, the TGI (SF-295 CNS) was 3.06 µM and the GI50 (SW-620 colon) was 1.41 µM. For the same compound, the TGI (SW-620 colon) was 2.99 µM, the GI50 (A498 renal) was 1.51 µM and the TGI (A498 renal) was 3.23 µM. The GI50 (SF-268 CNS) was 2.24 µM, the TGI (SF-268 CNS) was 5.71 µM and the GI50 (MDA-MB-231 breast) was 2.72 µM. For the same compound, the TGI (MDA-MB-231 breast) was 5.95 µM, the GI50 (U251 CNS) was 3.5 µM and the TGI (U251 CNS) was 10.6 µM. The GI50 (MOLT-4 leukemia) was 2.05 µM, the TGI (MOLT-4 leukemia) was 4.11 µM and the GI50 (NCI-H460 lung) was 3.24 µM. For the same compound, the TGI (NCI-H460 lung) was 11.2 µM, the GI50 (NCI-H226 lung) was 2.53 µM and the TGI (NCI-H226 lung) was 6.23 µM. It also gave a GI50 (NCI-H522 lung) of 1.76 µM, a TGI (NCI-H522 lung) of 4.02 µM and a GI50 (PC-3 prostate) of 2.05 µM. The TGI (PC-3 prostate) was 4.54 µM, the GI50 (IGROV1 ovarian) was 1.17 µM and the TGI (IGROV1 ovarian) was 2.94 µM. The GI50 (KM12 colon) was 1.71 µM and the TGI (KM12 colon) was 3.2 µM.
